The record followed here is ChEMBL document CHEMBL1201862, “PubChem BioAssay data set” (2004).

Active and inactive are the calls of the source. Bounds are passed on as bounds.

The target of assay [1] is T1, Sentrin-specific protease 6 (Homo sapiens, UniProt Q9GZR1).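 Also: Luminescence-based dose-response confirmatory assay of SENP6 inhibition, following up an ultra-high-throughput screen.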
T1 sequence (Q9GZR1 whole entry): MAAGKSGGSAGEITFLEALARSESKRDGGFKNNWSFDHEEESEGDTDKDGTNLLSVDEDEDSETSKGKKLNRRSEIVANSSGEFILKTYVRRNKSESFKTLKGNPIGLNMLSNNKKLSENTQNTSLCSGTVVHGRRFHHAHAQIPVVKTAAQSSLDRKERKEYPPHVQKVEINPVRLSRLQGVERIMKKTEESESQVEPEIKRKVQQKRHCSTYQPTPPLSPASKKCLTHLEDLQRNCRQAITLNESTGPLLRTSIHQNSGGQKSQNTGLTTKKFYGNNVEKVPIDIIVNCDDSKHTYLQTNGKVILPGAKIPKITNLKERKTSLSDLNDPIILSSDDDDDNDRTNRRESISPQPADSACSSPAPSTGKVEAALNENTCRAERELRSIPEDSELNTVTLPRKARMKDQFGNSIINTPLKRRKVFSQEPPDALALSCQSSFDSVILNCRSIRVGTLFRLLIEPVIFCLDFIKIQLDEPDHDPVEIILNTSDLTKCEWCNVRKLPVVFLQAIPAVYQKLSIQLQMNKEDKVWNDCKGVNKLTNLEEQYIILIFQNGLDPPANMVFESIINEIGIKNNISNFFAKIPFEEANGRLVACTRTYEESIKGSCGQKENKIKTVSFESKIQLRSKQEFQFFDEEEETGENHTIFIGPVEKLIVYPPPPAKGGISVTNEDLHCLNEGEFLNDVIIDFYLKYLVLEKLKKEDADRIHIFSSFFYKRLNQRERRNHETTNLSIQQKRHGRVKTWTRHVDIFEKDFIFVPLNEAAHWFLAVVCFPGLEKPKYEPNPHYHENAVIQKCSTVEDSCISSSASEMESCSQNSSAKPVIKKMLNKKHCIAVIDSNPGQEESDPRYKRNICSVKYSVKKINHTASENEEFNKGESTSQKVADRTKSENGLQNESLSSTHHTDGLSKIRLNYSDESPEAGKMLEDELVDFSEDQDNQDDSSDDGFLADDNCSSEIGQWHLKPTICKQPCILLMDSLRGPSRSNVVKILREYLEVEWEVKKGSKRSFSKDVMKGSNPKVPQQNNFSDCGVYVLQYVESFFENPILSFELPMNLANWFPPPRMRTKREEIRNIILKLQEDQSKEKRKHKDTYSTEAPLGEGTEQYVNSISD
It counts as functional.

For the next assay, the target named is Caspase-7 (Homo sapiens, UniProt P55210). The assay is described as follows: caspase-7 enzyme inhibition, selectivity check – biochemical, DEVD-R110 fluorescence, cherry-pick, selectivity assay for caspase-6 inhibitor project, dose response (AID 743295). Type of assay: functional.
For another assay, the target named is T2, Insulin-degrading enzyme (Homo sapiens, UniProt P14735).
T2 sequence (P14735 whole entry): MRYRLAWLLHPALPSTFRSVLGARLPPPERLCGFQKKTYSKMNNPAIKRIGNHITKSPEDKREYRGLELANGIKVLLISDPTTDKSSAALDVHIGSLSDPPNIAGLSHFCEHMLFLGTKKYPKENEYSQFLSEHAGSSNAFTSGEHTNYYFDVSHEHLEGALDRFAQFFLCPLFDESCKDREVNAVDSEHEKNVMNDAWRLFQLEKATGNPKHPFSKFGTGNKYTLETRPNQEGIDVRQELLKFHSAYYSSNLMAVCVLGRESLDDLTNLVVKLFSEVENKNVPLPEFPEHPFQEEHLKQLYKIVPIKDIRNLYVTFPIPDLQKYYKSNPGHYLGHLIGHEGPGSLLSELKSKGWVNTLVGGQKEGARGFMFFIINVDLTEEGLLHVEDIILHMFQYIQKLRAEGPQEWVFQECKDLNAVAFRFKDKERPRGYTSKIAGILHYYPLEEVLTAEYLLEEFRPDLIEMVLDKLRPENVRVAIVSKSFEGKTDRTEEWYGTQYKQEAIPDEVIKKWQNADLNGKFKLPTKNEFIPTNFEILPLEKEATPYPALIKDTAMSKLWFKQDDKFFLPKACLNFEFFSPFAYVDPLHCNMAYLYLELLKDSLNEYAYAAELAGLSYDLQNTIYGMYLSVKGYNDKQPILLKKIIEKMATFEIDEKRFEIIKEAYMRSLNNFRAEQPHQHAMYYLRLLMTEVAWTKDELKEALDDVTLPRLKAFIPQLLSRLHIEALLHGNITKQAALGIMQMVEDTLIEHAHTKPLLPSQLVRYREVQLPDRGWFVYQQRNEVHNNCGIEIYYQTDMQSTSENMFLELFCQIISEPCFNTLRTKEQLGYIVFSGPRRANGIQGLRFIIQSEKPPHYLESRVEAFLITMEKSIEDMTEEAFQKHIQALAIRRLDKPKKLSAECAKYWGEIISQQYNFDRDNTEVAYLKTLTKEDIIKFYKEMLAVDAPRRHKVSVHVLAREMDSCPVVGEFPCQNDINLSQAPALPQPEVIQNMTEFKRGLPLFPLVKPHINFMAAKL
Put plainly: cellular IDE activation of Abeta substrate cleavage – fluorescence polarization, HEK cells, dose response (AID 588439). It counts as functional, cell-based. (In general: Polarisation of emitted light reports the rotation of a fluorescent probe.)

In a further assay the test system is HeLa. The assay is described as follows: viability loss in HeLa cells – cell-based, 24 h, cherry-picked samples, cytotoxicity control, dose response (AID 504726).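 Also: potency for cytotoxicity as loss of luminescence signal.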 Type of assay: functional. As to conditions: Homo sapiens.
Assay [2] concerns the target cGMP-dependent protein kinase 1 (Homo sapiens, UniProt Q13976). It counts as functional.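 Also: value from a kinome panel screen with PRKG1 as the panel member.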
A further assay addresses SRSF protein kinase 1 (Homo sapiens, UniProt Q96SB4). Type of assay: functional.
The target in assay [3] is Cell division cycle 7-related protein kinase (Homo sapiens, UniProt O00311). Type of assay: functional.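 Also: value obtained from a kinome-wide kinase panel.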
Assay [4] concerns the target Serine/threonine-protein kinase DCLK1 (Homo sapiens, UniProt O15075). It counts as functional.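 Also: affinity for DCLK1 (listed as DCAMKL1) measured as one member of a kinome-wide kinase profiling panel.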
In assay [5] the target is Homeodomain-interacting protein kinase 2 (Homo sapiens, UniProt Q9H2X6). It counts as functional.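 Also: measured within a kinome-wide kinase profiling panel, HIPK2 being one panel member.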
Assay [6] has as its target Tyrosine-protein kinase SYK (Homo sapiens, UniProt P43405). Type of assay: functional.
The target in assay [7] is Megakaryocyte-associated tyrosine-protein kinase (Homo sapiens, UniProt P42679). It counts as functional.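 Also: affinity measured as one member of a kinase panel (Navigating the Kinome) against MATK.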
Assay [8] deals with Cyclin-dependent kinase 2 (Homo sapiens, UniProt P24941). It counts as functional.
The target of assay [9] is Tyrosine-protein kinase Lck (Homo sapiens, UniProt P06239). It counts as functional.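 Also: lck was assayed as one member of a kinase panel.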
The target in assay [10] is Inhibitor of nuclear factor kappa-B kinase subunit epsilon (Homo sapiens, UniProt Q14164). The assay is described as follows: Navigating the Kinome. Panel member name: IKBKE. Type of assay: functional.
Chain of Inhibitor of nuclear factor kappa-B kinase subunit epsilon (Q14164 whole entry): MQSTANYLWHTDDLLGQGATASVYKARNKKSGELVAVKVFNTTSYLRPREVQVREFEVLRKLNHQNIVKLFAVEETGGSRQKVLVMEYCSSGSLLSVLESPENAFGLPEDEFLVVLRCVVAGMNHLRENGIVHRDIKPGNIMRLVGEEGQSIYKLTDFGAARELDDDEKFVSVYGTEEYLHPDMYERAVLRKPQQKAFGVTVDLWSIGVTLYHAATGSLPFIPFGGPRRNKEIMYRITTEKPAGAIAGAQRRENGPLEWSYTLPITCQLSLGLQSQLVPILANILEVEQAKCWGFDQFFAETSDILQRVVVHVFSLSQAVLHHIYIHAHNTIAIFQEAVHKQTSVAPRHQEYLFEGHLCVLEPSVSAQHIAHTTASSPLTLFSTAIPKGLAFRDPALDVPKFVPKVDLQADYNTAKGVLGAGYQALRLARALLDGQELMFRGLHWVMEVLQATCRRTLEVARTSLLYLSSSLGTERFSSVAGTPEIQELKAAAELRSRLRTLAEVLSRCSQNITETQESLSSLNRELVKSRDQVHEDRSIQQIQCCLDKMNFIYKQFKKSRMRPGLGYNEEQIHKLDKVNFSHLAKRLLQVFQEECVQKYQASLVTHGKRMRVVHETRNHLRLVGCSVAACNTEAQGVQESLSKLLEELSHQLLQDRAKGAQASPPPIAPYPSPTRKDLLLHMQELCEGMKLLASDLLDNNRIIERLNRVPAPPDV

Chain of cGMP-dependent protein kinase 1 (Q13976 whole entry): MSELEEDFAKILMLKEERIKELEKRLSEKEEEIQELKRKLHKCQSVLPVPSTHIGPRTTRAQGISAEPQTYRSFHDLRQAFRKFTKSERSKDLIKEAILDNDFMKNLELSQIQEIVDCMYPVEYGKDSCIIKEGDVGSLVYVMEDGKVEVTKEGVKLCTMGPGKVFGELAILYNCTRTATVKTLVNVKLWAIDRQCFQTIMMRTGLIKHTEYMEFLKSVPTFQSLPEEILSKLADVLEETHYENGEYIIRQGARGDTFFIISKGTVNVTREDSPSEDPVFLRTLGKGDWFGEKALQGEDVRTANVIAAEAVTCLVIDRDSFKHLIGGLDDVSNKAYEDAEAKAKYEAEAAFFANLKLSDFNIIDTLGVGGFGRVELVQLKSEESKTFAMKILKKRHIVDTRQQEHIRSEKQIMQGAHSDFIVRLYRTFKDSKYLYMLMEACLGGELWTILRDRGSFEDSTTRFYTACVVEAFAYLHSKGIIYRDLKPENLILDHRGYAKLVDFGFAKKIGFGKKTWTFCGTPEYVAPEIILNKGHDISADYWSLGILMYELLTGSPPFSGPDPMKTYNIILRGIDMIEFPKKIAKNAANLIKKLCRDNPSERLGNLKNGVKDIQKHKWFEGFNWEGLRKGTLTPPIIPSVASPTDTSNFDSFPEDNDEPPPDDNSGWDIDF
Chain of Homeodomain-interacting protein kinase 2 (Q9H2X6 whole entry): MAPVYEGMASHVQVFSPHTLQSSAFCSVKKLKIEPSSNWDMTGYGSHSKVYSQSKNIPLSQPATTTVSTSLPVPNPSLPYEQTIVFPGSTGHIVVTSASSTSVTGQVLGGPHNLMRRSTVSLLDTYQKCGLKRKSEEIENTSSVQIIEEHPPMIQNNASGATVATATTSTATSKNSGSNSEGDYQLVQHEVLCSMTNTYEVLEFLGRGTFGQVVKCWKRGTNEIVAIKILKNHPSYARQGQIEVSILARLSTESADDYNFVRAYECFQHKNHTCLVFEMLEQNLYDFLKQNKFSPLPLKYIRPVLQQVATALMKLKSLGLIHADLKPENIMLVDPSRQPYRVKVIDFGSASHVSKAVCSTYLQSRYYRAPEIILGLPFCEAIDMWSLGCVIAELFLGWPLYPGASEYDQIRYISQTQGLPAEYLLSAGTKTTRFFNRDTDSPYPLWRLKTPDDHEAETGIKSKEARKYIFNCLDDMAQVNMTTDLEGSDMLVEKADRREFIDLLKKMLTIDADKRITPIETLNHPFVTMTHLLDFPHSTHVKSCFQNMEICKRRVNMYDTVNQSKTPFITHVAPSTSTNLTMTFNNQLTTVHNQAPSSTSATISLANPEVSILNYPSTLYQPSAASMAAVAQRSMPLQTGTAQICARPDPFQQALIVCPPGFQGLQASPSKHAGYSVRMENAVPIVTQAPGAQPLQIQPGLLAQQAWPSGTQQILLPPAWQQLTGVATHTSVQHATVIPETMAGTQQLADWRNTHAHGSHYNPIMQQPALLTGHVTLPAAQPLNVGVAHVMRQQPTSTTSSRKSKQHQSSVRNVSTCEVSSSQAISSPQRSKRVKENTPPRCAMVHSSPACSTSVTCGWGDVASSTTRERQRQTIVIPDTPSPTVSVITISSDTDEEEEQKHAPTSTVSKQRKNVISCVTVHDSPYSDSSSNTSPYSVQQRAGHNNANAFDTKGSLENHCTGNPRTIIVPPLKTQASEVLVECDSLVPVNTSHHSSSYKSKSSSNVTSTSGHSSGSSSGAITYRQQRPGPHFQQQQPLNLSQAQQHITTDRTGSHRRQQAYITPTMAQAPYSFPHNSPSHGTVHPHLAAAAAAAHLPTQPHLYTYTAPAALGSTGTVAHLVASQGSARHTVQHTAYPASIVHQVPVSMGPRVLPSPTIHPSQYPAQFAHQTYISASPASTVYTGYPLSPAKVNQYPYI
Chain of Cell division cycle 7-related protein kinase (O00311 whole entry): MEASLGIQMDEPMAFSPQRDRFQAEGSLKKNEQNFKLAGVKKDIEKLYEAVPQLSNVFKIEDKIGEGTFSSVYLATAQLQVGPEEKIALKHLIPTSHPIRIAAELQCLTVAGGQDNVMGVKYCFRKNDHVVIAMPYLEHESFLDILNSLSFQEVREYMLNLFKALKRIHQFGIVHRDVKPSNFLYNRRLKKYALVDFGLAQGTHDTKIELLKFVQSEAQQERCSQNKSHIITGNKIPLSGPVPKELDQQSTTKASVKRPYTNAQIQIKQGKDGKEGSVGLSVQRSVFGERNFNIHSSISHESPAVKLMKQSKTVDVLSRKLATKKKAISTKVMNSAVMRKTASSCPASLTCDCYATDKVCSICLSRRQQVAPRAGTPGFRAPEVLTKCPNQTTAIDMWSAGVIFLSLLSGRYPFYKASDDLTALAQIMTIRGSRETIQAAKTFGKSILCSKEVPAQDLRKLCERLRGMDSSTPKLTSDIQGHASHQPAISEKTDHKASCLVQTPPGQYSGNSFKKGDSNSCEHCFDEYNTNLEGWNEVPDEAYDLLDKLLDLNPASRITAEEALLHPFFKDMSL
Chain of SRSF protein kinase 1 (Q96SB4 whole entry): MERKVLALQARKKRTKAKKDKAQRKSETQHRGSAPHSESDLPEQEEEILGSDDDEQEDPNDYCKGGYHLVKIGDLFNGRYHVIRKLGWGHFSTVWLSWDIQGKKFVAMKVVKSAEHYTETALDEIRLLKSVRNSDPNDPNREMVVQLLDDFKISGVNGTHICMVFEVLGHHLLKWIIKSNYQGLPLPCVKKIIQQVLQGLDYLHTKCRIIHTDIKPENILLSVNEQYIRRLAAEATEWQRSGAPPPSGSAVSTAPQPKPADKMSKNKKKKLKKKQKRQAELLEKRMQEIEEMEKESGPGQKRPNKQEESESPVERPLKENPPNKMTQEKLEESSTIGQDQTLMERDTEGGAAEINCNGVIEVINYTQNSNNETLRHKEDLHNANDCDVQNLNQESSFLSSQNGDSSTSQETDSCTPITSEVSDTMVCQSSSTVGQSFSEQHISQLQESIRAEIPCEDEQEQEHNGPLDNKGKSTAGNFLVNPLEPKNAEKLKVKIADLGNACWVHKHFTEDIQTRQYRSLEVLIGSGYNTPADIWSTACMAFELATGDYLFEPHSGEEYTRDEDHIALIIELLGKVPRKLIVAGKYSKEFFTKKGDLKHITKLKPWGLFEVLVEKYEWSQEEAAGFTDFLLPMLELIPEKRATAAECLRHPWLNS
Chain of Serine/threonine-protein kinase DCLK1 (O15075 whole entry): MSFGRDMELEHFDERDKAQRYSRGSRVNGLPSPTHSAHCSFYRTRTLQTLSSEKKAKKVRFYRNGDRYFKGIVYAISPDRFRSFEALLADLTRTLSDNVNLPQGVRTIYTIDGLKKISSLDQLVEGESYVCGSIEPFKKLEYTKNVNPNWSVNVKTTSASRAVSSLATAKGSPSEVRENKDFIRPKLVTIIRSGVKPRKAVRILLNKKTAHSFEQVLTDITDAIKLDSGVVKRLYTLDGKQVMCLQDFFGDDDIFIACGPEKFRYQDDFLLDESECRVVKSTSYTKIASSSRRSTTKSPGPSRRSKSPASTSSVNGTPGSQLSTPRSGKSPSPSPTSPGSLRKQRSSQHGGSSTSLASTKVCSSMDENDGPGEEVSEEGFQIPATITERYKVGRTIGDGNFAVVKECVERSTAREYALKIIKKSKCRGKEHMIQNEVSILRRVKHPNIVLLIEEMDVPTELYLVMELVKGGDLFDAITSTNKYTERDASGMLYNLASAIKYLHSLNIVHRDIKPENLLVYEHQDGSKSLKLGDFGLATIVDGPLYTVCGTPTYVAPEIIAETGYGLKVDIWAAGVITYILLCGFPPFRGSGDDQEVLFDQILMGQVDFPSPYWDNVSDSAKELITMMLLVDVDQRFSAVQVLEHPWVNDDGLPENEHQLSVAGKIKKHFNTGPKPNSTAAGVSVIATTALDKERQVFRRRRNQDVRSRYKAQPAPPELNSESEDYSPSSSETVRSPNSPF
Chain of Megakaryocyte-associated tyrosine-protein kinase (P42679 whole entry): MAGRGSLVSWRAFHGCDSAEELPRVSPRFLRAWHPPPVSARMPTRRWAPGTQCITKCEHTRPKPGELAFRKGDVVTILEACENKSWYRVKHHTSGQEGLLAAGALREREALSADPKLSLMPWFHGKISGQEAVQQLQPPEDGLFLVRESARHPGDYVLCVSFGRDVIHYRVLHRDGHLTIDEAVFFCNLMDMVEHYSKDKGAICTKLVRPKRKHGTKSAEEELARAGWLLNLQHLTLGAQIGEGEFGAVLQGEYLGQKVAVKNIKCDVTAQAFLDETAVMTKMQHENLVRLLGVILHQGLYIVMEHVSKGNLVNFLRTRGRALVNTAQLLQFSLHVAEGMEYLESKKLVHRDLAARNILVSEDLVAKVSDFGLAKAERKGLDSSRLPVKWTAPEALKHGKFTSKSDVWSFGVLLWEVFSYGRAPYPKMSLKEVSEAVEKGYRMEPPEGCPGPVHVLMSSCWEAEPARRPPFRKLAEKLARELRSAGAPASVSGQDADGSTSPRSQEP

As a reminder, the IC50 is the concentration that inhibits the measured activity by half. Take `O=C(COC(=O)c1ccc([N+](=O)[O-])s1)Nc1ccc(F)cc1`: in [1], the IC50 is 3820 nM (active).

By AC50 is commonly meant the concentration at which the activity in the assay is half-maximal. By EC50 is commonly meant the concentration needed to bring the measured effect to its halfway point. Take `CCN(CC)CCCC(C)n1c2nc(=O)[nH]c(=O)c-2nc2cc(Cl)ccc21` (stereo not given): the concentration at half-maximal activity (AC50) was 899 nM (active) on Caspase-7 and 8490 nM (active) in the assay with HeLa. At Insulin-degrading enzyme, the EC50 is > 54700 nM (inactive).

Broadly, the Ki is the dissociation constant of the complex between target and ligand, obtained from inhibition or displacement. As a reminder, the pKi is −log10 of the Ki, conventionally taken in molar units. High values mean a small Ki, low ones a large Ki. Take `OC1CCC(Nc2nc(Cl)cc(-c3c[nH]c4ncccc34)n2)CC1` (stereo not given): the Ki in assay [2] was 100 nM (active); at SRSF protein kinase 1, 1000 nM (active); in assay [3], 0.158 nM (active); in [4], > 10000 nM (inactive); in assay [5], 31.6 nM (active); in assay [6] it was 1000 nM (active). The results for the Ki in assay [7] and in assay [8] were > 2000 nM (inactive) and 12.6 nM (active), respectively. For the same compound, the pKi in assay [2] was determined as 7; at SRSF protein kinase 1, 6; in assay [3], 9.8; in assay [5] it was 7.5; in [6], 6; in assay [8], 7.9.

As to `COc1cccc(CNC(=O)c2cnc(-c3ccncc3)nc2)c1`, the figures for the Ki in [9] and in assay [10] were > 6310 nM (inactive) and > 3160 nM (inactive), respectively.
